Source: patent US20070128217A1 (priority 2003, published 2007)

Key:
[1] = tested on: control sera (pooled serum of ten healthy LUMC hospital workers; commercial negative donor pooled serum from the Dutch bloodbank); format: binding, human; set-up: Binding of Control serum LUMC to linear peptides / Binding of Control serum Blood-bank to linear peptides / Binding of Control serum LUMC to looped peptides / Binding of Control Serum Blood-Bank to Looped peptides / Binding of Control serum LUMC to linear peptides of the protein M of SARS-CoV Urbani / Binding of Control serum Blood-bank to linear peptides of the protein M of SARS-CoV Urbani / Binding of Control serum LUMC to looped peptides of the protein M of SARS-CoV Urbani / Binding of Control Serum Blood-Bank to Looped peptides of the protein M of SARS-CoV Urbani: unit not given here
[2] = tested on: rabbit serum obtained by immunizing a rabbit with the SARS-CoV strain Frankfurt 1; format: binding; set-up: Binding of a rabbit serum to linear peptides / Binding of a rabbit serum to looped peptides / Rabbit serum linear peptides / Rabbit serum looped peptides / Binding of a rabbit serum to linear peptides of protein N of SARS-CoV Urbani (Rabbit serum linear peptides) / Binding of a rabbit serum to looped/cyclic peptides of protein N of SARS-CoV Urbani (Rabbit serum looped peptides): unit not given here
[3] = tested on: antibodies in sera from SARS patients (sera 1a, 1b, 2, 6, 37, 62, London, SARS-yellow, SARS-green); format: binding, human; set-up: Binding of serum 6 to linear peptides of protein X1 of SARS-CoV Urbani / Binding of serum 37 to linear peptides of protein X1 of SARS-CoV Urbani / Binding of serum 6 to looped/cyclic peptide (PEPSCAN-ELISA) / Binding of serum 37 to looped/cyclic peptide (PEPSCAN-ELISA) / Binding of serum 37 to looped/cyclic peptides of protein X1 of SARS-CoV Urbani / Binding of serum 6 to linear peptides of protein X2 / Binding of serum 37 to linear peptides of protein X2 / Binding of serum 37 to looped/cyclic peptides of protein X2 of SARS-CoV Urbani / Binding of serum 6 to linear peptides of protein M of SARS-CoV Urbani / Binding of serum 37 to linear peptides of protein M of SARS-CoV Urbani / Binding of serum 6 to looped/cyclic peptides of protein M of SARS-CoV Urbani / Binding of serum 37 to looped/cyclic peptides of protein M of SARS-CoV Urbani / Binding of serum 6 to linear peptides of protein X3 of SARS-CoV Urbani / Binding of serum 37 to linear peptides of protein X3 of SARS-CoV Urbani / Binding of serum 37 to looped/cyclic peptides of protein X3 of SARS-CoV Urbani / Binding of serum 6 to linear peptides of protein X4 of SARS-CoV Urbani / Binding of serum 37 to linear peptides of protein X4 of SARS-CoV Urbani / Binding of serum 37 to looped/cyclic peptides of protein X4 of SARS-CoV Urbani / Binding of serum 6 to linear peptides of protein X5 of SARS-CoV Urbani / Binding of serum 37 to linear peptides of protein X5 of SARS-CoV Urbani / Binding of serum 37 to looped/cyclic peptides of protein X5 of SARS-CoV Urbani / Binding of serum 6 to linear peptides of protein N of SARS-CoV Urbani / Binding of serum 37 to linear peptides of protein N of SARS-CoV Urbani / Binding of serum 6 to linear peptide (PEPSCAN-ELISA) / Binding of serum 1a to looped/cyclic peptides of protein N of SARS-CoV Urbani / Binding of serum 1b to looped/cyclic peptides of protein N of SARS-CoV Urbani / Binding of serum 2 to looped/cyclic peptides of protein N of SARS-CoV Urbani / Binding of serum 6 to looped/cyclic peptides of protein N of SARS-CoV Urbani / Binding of serum 37 to looped/cyclic peptides of protein N of SARS-CoV Urbani / Binding of serum 62 to looped/cyclic peptides of protein N of SARS-CoV Urbani / Binding of serum London to looped/cyclic peptides of protein N of SARS-CoV Urbani / Binding of serum SARS-green to looped/cyclic peptides of protein N of SARS-CoV Urbani: unit not given here

YNSVTDTIVVTEGDG
0.2: Binding of serum 2 to looped/cyclic peptides of protein X1 of SARS-CoV Urbani [3] | Binding of serum 6 to looped/cyclic peptides of protein X1 of SARS-CoV Urbani [3] | Binding of serum London to linear peptides of protein X1 of SARS-CoV Urbani [3] | Binding of serum London to looped/cyclic peptides of protein X1 of SARS-CoV Urbani [3]
0.6: Binding of serum 1a to linear peptides of protein X1 of SARS-CoV Urbani [3]
0.5: Binding of a rabbit serum to looped peptides [2] | Binding of serum 1b to linear peptides of protein X1 of SARS-CoV Urbani [3] | Binding of serum 37 to linear peptides of protein X1 of SARS-CoV Urbani [3] | Binding of serum 62 to linear peptides of protein X1 of SARS-CoV Urbani [3]
0.1: Binding of a rabbit serum to linear peptides [2]
0.4: Binding of Control serum Blood-bank to linear peptides [1] | Binding of Control serum LUMC to linear peptides [1] | Binding of Control serum LUMC to looped peptides [1] | Binding of serum 1a to looped/cyclic peptides of protein X1 of SARS-CoV Urbani [3] | Binding of serum 2 to linear peptides of protein X1 of SARS-CoV Urbani [3] | Binding of serum 6 to linear peptides of protein X1 of SARS-CoV Urbani [3] | Binding of serum 37 to looped/cyclic peptides of protein X1 of SARS-CoV Urbani [3] | Binding of serum SARS-yellow to linear peptides of protein X1 of SARS-CoV Urbani [3]
0.3: Binding of Control Serum Blood-Bank to Looped peptides [1] | Binding of serum 1b to looped/cyclic peptides of protein X1 of SARS-CoV Urbani [3] | Binding of serum 62 to looped/cyclic peptides of protein X1 of SARS-CoV Urbani [3] | Binding of serum SARS-green to linear peptides of protein X1 of SARS-CoV Urbani [3] | Binding of serum SARS-green to looped/cyclic peptides of protein X1 of SARS-CoV Urbani [3] | Binding of serum SARS-yellow to looped/cyclic peptides of protein X1 of SARS-CoV Urbani [3]

KRWQLALYKGFQFIC
0.5: Binding of Control serum LUMC to linear peptides [1] | Binding of serum 1b to linear peptides of protein X1 of SARS-CoV Urbani [3] | Binding of serum 2 to linear peptides of protein X1 of SARS-CoV Urbani [3] | Binding of serum 2 to looped/cyclic peptide (PEPSCAN-ELISA) [3] | Binding of serum 62 to linear peptides of protein X1 of SARS-CoV Urbani [3] | Binding of serum SARS-yellow to looped/cyclic peptide (PEPSCAN-ELISA) [3]
1.1: Binding of serum London to looped/cyclic peptide (PEPSCAN-ELISA) [3]
0.2: Binding of serum London to linear peptides of protein X1 of SARS-CoV Urbani [3] | Binding of serum SARS-yellow to linear peptides of protein X1 of SARS-CoV Urbani [3]
0.1: Binding of a rabbit serum to linear peptides [2] | Binding of serum SARS-green to linear peptides of protein X1 of SARS-CoV Urbani [3]
0.3: Binding of serum SARS-green to looped/cyclic peptide (PEPSCAN-ELISA) [3]
0.4: Binding of serum 1b to looped/cyclic peptide (PEPSCAN-ELISA) [3]
0.7: Binding of Control Serum Blood-Bank to Looped peptides [1] | Binding of Control serum LUMC to looped peptides [1]
0.6: Binding of Control serum Blood-bank to linear peptides [1] | Binding of serum 1a to linear peptides of protein X1 of SARS-CoV Urbani [3] | Binding of serum 1a to looped/cyclic peptide (PEPSCAN-ELISA) [3] | Binding of serum 6 to linear peptides of protein X1 of SARS-CoV Urbani [3] | Binding of serum 37 to linear peptides of protein X1 of SARS-CoV Urbani [3] | Binding of serum 37 to looped/cyclic peptide (PEPSCAN-ELISA) [3] | Binding of serum 62 to looped/cyclic peptide (PEPSCAN-ELISA) [3]
0.8: Binding of a rabbit serum to looped peptides [2] | Binding of serum 6 to looped/cyclic peptide (PEPSCAN-ELISA) [3]

GFAAYNRYRIGNYKL
0.1: Binding of serum SARS-yellow to linear peptides of protein M of SARS-CoV Urbani [3]
0.7: Binding of Control serum Blood-bank to linear peptides of the protein M of SARS-CoV Urbani [1] | Binding of serum 1a to looped/cyclic peptides of protein M of SARS-CoV Urbani [3] | Binding of serum 6 to looped/cyclic peptides of protein M of SARS-CoV Urbani [3]
0.3: Binding of serum SARS-green to linear peptides of protein M of SARS-CoV Urbani [3]
0.6: Binding of Control serum LUMC to looped peptides of the protein M of SARS-CoV Urbani [1] | Binding of serum 1a to linear peptides of protein M of SARS-CoV Urbani [3] | Binding of serum 2 to looped/cyclic peptides of protein M of SARS-CoV Urbani [3] | Binding of serum 37 to looped/cyclic peptides of protein M of SARS-CoV Urbani [3]
0.5: Binding of Control Serum Blood-Bank to Looped peptides of the protein M of SARS-CoV Urbani [1] | Rabbit serum looped peptides [2] | Binding of serum 37 to linear peptides of protein M of SARS-CoV Urbani [3] | Binding of serum 62 to linear peptides of protein M of SARS-CoV Urbani [3] | Binding of serum 62 to looped/cyclic peptides of protein M of SARS-CoV Urbani [3] | Binding of serum SARS-yellow to looped/cyclic peptides of protein M of SARS-CoV Urbani [3]
0.4: Binding of serum 1b to linear peptides of protein M of SARS-CoV Urbani [3] | Binding of serum 2 to linear peptides of protein M of SARS-CoV Urbani [3] | Binding of serum London to linear peptides of protein M of SARS-CoV Urbani [3]
0.2: Rabbit serum linear peptides [2] | Binding of serum 1b to looped/cyclic peptides of protein M of SARS-CoV Urbani [3] | Binding of serum London to looped/cyclic peptides of protein M of SARS-CoV Urbani [3] | Binding of serum SARS-green to looped/cyclic peptides of protein M of SARS-CoV Urbani [3]
0.8: Binding of Control serum LUMC to linear peptides of the protein M of SARS-CoV Urbani [1] | Binding of serum 6 to linear peptides of protein M of SARS-CoV Urbani [3]
